Laboratory results: patent US20100266604A1, “USE OF TAM RECEPTOR INHIBITORS AS IMMUNOENHANCERS AND TAM ACTIVATORS AS IMMUNOSUPPRESSORS” (The Salk Institute for Biological Studies, priority 2007, published 2010)
Blank lines part the entries; values can stand above or below the molecule they belong to.

How the values were obtained:
[1] = test system: TLR-induced cytokine production in DCs; assay: DC activation assay: TLR-induced cytokine production (ELISA / ISRE luciferase reporter); format: cell-based, mouse; settings: IFNα, 10 nM CpG, 15 hours, 3 nM ProS (FIG. 8A)
Protocol: Splenic DC or BM-DCs (1×10^6 cells/ml) were cultured overnight in serum-free medium (StemSpan, StemCell Technologies Inc.) in the presence of the indicated concentrations of LPS from Salmonella minnesota R595 Re (Alexis), CpG-ODN 1668 (TCCATGACGTTCCGATGCT; SEQ ID NO: 19; Integrated DNA Technologies) or Poly I:C (InvivoGen) alone or in the presence of murine recombinant Gas6 (R&D Systems) or murine recombinant Protein S (produced as described in Prasad et al., (2006) Mol Cell Neurosci 33:96-108). Cytokine production was quantified in cell-free supernatants by ELISA (ebioscience for IL-12, IL-6 and TNFα and PBL-biomedical for IFNα) or by a luciferase assay using a cell line containing an ISRE-responsive element luciferase reporter construct for Type I IFN (Jiang et al., (2005) Nat Immunol 6:565-570).

[2] = test system: SOCS1 and SOCS3 mRNA in DCs; assay: Q-PCR of SOCS1 and SOCS3 mRNA in DCs; format: cell-based, mouse; settings: for SOCS1 mRNA induction: 300 U/ml IFNα
Protocol: (§1) Splenic DCs (1×10^6 cells/ml) or BM-DCs (5×10^6 cells/ml) were cultured in serum-free medium and treated with the indicated concentrations of murine recombinant Gas6, murine recombinant Protein S, the TLR ligands indicated above, recombinant mouse IFNα (PBL Biomedical laboratories), recombinant mouse Axl-FC chimera (R&D), cyclohexamide (Sigma) or Actinomycin D (Sigma). Whole cell lysates and RNA extraction were performed as indicated below.
(§2) After stimulation, cells were harvested, and total RNA was isolated using the RNeasy mini kit (Qiagen). Reverse transcription was performed according to manufacturer instructions with RT Superscript III (Invitrogen). PCR reactions were performed on an ABI Prism 7700 Sequence Detection System using SYBRGreen PCR master mix (Applied Biosystems). Each reaction was normalized against the expression of β-actin or GAPDH. Analyses of dissociation curves were performed with SDS software (Applied Biosystems) to ensure the absence of nonspecific amplification. Q-PCR primers used herein are listed below.

[3] = test system: Axl mRNA and protein in DCs; assay: Axl expression in DCs (Q-PCR, FACS, Western blot); format: cell-based, mouse; settings: for Axl expression by Western blot: WT DCs
Protocol: as §1
DCs were washed in PBS and harvested in NuPage LDS sample buffer (Invitrogen) with 100 μM DTT. Whole cell lysates were resolved by electrophoresis, proteins were transferred to a PVDF membrane (Immobilon P, Millipore), blocked in 3% BSA/TBS-Tween-20 and probed with the indicated antibodies. For fluorescent western blotting with the Odyssey system, proteins were transferred to an Immobilon-FL PVDF membrane (Millipore) and incubated with two primary antibodies in 0.1% casein/PBS-Tween-20. Following incubation with fluorescence-labeled secondary antibodies, membranes were scanned with the Odyssey imaging system (LI-COR).
as §2
Cells were incubated for 15 minutes with a rat mAb to CD16/32 to block Fc receptors and then with primary antibodies for 20 minutes on ice. The following mAbs against murine molecules were used: allophycocyanin- and phycoerythrin-conjugated anti-CD11c, FITC-conjugated anti-MHC class I (H-2K^b) and anti-MHC class II (I-A^b), PerCP-Cy5.5-conjugated anti-CD3, anti-CD19 and anti-NK1.1 (all from BD Pharmingen). For Axl staining, cells were processed as described, fixed with 10% paraformaldehyde, permeabilized with Saponin (0.1%, Sigma), incubated with Axl (M-20) antibody for 30 minutes and then with anti-goat Cy5 antibody (Jackson ImmunoResearch). Fluorescent cells were acquired with a FacsSort flow cytometer (Becton Dickinson) and analyzed with FlowJo (Tree Star) software.

[4] = test system: IRF-7 and IFI-204 mRNA in DCs; assay: Q-PCR of IRF-7 and IFI-204 mRNA in DCs; format: cell-based, mouse; settings: splenic DCs, 300 U/ml IFNα
Protocol: as §1, §2

[5] = target: TAM receptors (on mouse dendritic cells); assay: cell-based or functional assay
[6] = target: T1, Axl (mouse, endogenous in bone marrow-derived dendritic cells) (mouse, UniProt Q00993 19-888); assay: co-immunoprecipitation from BM-DC whole cell lysates, untreated (-) or treated 20 min with 50 nM Gas6 (+); IP with antibody to the IFN receptor R2 chain, immunoblot for Axl
T1 construct: whole, on cells; Endogenous protein co-immunoprecipitated from Triton X-100 lysates of mouse BM-DCs, not a recombinant construct; also called TAM receptor
T1 sequence (looked up): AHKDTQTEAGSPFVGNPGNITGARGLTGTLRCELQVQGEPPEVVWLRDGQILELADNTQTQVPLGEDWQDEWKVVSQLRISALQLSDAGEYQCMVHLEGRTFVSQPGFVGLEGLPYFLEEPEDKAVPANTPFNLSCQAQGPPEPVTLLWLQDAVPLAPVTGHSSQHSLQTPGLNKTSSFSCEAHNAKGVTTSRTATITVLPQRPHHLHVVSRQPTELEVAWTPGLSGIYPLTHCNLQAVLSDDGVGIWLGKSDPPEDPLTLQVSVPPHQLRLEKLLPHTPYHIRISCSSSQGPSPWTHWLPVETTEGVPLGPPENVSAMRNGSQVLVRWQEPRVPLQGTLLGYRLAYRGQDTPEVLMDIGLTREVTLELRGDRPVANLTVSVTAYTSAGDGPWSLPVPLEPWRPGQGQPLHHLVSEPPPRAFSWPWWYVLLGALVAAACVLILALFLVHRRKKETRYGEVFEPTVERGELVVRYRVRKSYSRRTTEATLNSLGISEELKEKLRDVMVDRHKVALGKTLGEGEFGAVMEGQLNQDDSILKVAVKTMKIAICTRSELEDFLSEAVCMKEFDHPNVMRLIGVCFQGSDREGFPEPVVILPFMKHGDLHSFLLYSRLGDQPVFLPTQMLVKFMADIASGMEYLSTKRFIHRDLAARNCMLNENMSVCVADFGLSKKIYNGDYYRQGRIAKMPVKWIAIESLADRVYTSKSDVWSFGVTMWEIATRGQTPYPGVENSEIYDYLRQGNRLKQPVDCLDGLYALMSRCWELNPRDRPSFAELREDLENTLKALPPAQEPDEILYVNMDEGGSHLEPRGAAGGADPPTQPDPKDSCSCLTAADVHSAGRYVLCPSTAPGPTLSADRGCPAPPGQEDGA

STAT1 = target: T2, STAT1 (mouse, UniProt P42225); assay: co-immunoprecipitation from BM-DC whole cell lysates, untreated (-) or treated 20 min with 50 nM Gas6 (+); IP with antibody to the IFN receptor R1 chain, immunoblot for STAT1
T2 construct: endogenous full-length protein in the cell lysate; also called total STAT1
T2 sequence (transcription factor, looked up): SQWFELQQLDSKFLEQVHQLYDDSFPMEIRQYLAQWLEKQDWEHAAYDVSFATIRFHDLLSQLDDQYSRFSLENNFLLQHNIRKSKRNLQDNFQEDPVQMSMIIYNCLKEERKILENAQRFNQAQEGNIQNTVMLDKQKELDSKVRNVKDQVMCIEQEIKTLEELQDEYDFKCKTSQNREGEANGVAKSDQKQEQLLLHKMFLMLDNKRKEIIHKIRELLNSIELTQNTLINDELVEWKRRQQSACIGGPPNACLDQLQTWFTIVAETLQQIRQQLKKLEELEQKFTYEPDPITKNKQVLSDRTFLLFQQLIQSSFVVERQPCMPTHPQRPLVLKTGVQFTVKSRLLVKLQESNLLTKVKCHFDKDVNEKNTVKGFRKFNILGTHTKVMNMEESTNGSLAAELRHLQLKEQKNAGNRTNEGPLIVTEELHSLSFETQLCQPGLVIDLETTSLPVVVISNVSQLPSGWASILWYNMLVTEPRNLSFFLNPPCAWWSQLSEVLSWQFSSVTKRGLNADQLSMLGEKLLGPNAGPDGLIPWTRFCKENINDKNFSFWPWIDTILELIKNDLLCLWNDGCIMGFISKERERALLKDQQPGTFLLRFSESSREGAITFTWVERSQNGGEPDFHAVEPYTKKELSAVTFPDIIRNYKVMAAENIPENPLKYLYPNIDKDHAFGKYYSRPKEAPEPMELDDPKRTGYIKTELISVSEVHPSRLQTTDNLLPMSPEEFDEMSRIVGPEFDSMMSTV

Molecule: ProS: murine recombinant Protein S, the second agonist for TAM receptors
inhibiting TLR-induced cytokine production in WT DCs, compared with Gas6 [1]: equally effective

Molecule: IFNα
SOCS1 mRNA expressed by TAM TKO DCs relative to WT DCs ([2]; IFN-treated, integrated over the 6-hour time course): ~24%
SOCS1 mRNA induction ([2]; TAM TKO splenic DCs): significantly blunted
SOCS1 mRNA induction ([2]; WT splenic DCs, 2 hours, sustained up to 6 hours): robust induction
Axl induction ([3]; STAT1−/− DCs): lost
Axl expression by Western blot [3]: substantial up-regulation
IFNα-induced IRF-7 and IFI-204 mRNA levels, WT versus TAM TKO DCs [4]: indistinguishable

Molecule: poly I:C
Axl induction ([3]; Ifnar−/− DCs): lost
Axl induction ([3]; STAT1−/− DCs): lost
Axl expression by Western blot [3]: substantial up-regulation

Next, values leading:

SOCS1 mRNA expression in BM-DCs (Q-PCR) after addition of 50 nM Gas6 [5]: 10 fold
SOCS3 mRNA expression in BM-DCs (Q-PCR) after addition of 50 nM Gas6 [5]: 10 fold
Molecule: murine recombinant Gas6 (R&D Systems) (from UniProt Q61592 28-674) (ligand)

binding result [6]: no binding
B1: IFNAR2 (receptor, mouse, UniProt O35664 22-513, looked up)
receptor chain: SLETITPSAFDGYPDEPCTINITIRNSRLILSWELENKSGPPANYTLWYTVMSKDENLTKVKNCSDTTKSSCDVTDKWLEGMESYVVAIVIVHRGDLTVCRCSDYIVPANAPLEPPEFEIVGFTDHINVTMEFPPVTSKIIQEKMKTTPFVIKEQIGDSVRKKHEPKVNNVTGNFTFVLRDLLPKTNYCVSLYFDDDPAIKSPLKCIVLQPGQESGLSESAIVGITTSCLVVMVFVSTIVMLKRIGYICLKDNLPNVLNFRHFLTWIIPERSPSEAIDRLEIIPTNKKKRLWNYDYEDGSDSDEEVPTASVTGYTMHGLTGKPLQQTSDTSASPEDPLHEEDSGAEESDEAGAGAGAEPELPTEAGAGPSEDPTGPYERRKSVLEDSFPREDNSSMDEPGDNIIFNVNLNSVFLRVLHDEDASETLSLEEDTILLDEGPQRTESDLRIAGGDRTQPPLPSLPSQDLWTEDGSSEKSDTSDSDADVGDGYIMR
notes: endogenous full-length protein in the cell lysate; also called R2 chain of the type I IFN receptor; IFN receptor R2 chain

binding result (STAT1): no binding
B2: R1 chain of the type I IFN receptor (mouse, endogenous in BM-DCs) (receptor, UniProt P33896 27-590, looked up)
chain: ENLKPPENIDVYIIDDNYTLKWSSHGESMGSVTFSAEYRTKDEAKWLKVPECQHTTTTKCEFSLLDTNVYIKTQFRVRAEEGNSTSSWNEVDPFIPFYTAHMSPPEVRLEAEDKAILVHISPPGQDGNMWALEKPSFSYTIRIWQKSSSDKKTINSTYYVEKIPELLPETTYCLEVKAIHPSLKKHSNYSTVQCISTTVANKMPVPGNLQVDAQGKSYVLKWDYIASADVLFRAQWLPGYSKSSSGSRSDKWKPIPTCANVQTTHCVFSQDTVYTGTFFLHVQASEGNHTSFWSEEKFIDSQKHILPPPPVITVTAMSDTLLVYVNCQDSTCDGLNYEIIFWENTSNTKISMEKDGPEFTLKNLQPLTVYCVQARVLFRALLNKTSNFSEKLCEKTRPGSFSTIWIITGLGVVFFSVMVLYALRSVWKYLCHVCFPPLKPPRSIDEFFSEPPSKNLVLLTAEEHTERCFIIENTDTVAVEVKHAPEEDLRKYSSQTSQDSGNYSNEEEESVGTESGQAVLSKAPCGGPCSVPSPPGTLEDGTCFLGNEKYLQSPALRTEPALLC
notes: whole, on cells; Endogenous protein immunoprecipitated from mouse BM-DC lysates; also called IFNAR1; IFN receptor R1 chain
